Test results reported in PMC4859819 (Molecular Pharmacology, 2016).

Columns and labels:
Test in all cases: two-electrode voltage clamp, Xenopus oocytes
Format in all cases: cell-based
[1] = molecular target: T1, GluN1/GluN2B receptor (rat GluN1-1a, mouse GluN2B) (Rattus norvegicus; Mus musculus, UniProt P35439+Q01097, P35439:L135H)
T1 construct: gene Grin1; full-length receptors from pcDNA3-based plasmids, Xenopus laevis oocytes, cDNA ratio 1:1; heterotetramer, usually two GluN1 and two GluN2
Text: (§1) two-electrode voltage clamp, Xenopus oocytes on GluN1/GluN2B receptor (rat GluN1-1a, mouse GluN2B)

[2] = molecular target: T2, GluN1/GluN2B receptor (rat GluN1-1a, mouse GluN2B) (Rattus norvegicus; Mus musculus, UniProt P35439+Q01097, P35439:L135W)
T2 construct: gene Grin1; full-length receptors from pcDNA3-based plasmids, Xenopus laevis oocytes, cDNA ratio 1:1; heterotetramer, usually two GluN1 and two GluN2
Text: as §1

[3] = molecular target: T3, GluN1/GluN2B receptor (rat GluN1-1a, mouse GluN2B) (Rattus norvegicus; Mus musculus, UniProt P35439+Q01097, P35439:Y109C)
T3 construct: gene Grin1; full-length receptors from pcDNA3-based plasmids, Xenopus laevis oocytes, cDNA ratio 1:1; heterotetramer, usually two GluN1 and two GluN2
T3 sequence (Q01097 27-1482, other chains not shown): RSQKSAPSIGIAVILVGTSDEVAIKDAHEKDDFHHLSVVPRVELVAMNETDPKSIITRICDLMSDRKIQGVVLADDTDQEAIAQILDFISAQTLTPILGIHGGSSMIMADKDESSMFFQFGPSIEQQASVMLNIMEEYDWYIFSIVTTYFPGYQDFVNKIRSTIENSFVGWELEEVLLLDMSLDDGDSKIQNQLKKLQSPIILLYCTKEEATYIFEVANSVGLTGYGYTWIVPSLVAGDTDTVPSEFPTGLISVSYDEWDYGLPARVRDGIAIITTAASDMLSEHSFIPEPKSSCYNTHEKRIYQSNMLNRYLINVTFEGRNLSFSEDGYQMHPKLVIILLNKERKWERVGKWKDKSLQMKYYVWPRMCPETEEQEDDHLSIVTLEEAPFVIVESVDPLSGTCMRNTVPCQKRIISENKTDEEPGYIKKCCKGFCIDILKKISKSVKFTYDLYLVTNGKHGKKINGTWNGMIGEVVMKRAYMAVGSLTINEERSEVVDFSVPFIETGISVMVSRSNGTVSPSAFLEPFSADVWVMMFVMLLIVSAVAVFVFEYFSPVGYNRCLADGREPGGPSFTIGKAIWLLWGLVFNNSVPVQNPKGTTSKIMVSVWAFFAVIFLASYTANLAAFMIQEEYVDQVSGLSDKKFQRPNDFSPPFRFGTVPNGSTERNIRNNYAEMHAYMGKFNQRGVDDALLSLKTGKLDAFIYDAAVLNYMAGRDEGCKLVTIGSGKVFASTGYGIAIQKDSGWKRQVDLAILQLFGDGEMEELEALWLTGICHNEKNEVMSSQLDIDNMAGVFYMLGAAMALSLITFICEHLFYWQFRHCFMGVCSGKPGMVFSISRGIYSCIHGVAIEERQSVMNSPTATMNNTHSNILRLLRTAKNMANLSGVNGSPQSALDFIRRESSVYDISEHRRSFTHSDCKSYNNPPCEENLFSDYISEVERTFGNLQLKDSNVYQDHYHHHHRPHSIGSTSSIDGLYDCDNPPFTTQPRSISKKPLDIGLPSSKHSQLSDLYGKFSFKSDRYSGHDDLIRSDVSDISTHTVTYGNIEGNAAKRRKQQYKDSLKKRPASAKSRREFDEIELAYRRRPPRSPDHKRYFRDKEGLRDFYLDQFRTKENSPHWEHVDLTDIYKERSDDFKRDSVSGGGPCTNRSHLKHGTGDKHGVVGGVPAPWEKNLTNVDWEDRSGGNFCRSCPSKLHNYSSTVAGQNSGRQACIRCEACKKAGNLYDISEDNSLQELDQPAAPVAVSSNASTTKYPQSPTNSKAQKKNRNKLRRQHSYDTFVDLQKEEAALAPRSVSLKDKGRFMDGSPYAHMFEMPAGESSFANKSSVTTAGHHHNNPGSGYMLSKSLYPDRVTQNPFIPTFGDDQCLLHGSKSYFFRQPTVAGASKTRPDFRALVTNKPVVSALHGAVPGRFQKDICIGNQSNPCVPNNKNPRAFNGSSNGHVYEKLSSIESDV
Text: as §1

[4] = molecular target: T4, GluN1/GluN2B receptor (rat GluN1-1a, mouse GluN2B) (Rattus norvegicus; Mus musculus, UniProt P35439+Q01097, Q01097:A135G)
T4 construct: gene Grin1; full-length receptors from pcDNA3-based plasmids, Xenopus laevis oocytes, cDNA ratio 1:1; heterotetramer, usually two GluN1 and two GluN2
Text: as §1

[5] = molecular target: T5, GluN1/GluN2B receptor (rat GluN1-1a, mouse GluN2B) (Rattus norvegicus; Mus musculus, UniProt P35439+Q01097, Q01097:A135P)
T5 construct: gene Grin1; full-length receptors from pcDNA3-based plasmids, Xenopus laevis oocytes, cDNA ratio 1:1; heterotetramer, usually two GluN1 and two GluN2
Text: as §1

[6] = molecular target: T6, GluN1/GluN2B receptor (rat GluN1-1a, mouse GluN2B) (Rattus norvegicus; Mus musculus, UniProt P35439+Q01097, Q01097:F114S)
T6 construct: gene Grin1; full-length receptors from pcDNA3-based plasmids, Xenopus laevis oocytes, cDNA ratio 1:1; heterotetramer, usually two GluN1 and two GluN2
Text: as §1

[7] = molecular target: T7, GluN1/GluN2B receptor (rat GluN1-1a, mouse GluN2B) (Rattus norvegicus; Mus musculus, UniProt P35439+Q01097, P35439:Y109S)
T7 construct: gene Grin1; full-length receptors from pcDNA3-based plasmids, Xenopus laevis oocytes, cDNA ratio 1:1; heterotetramer, usually two GluN1 and two GluN2
Text: as §1

[8] = molecular target: T8, GluN1/GluN2B receptor (rat GluN1-1a, mouse GluN2B) (Rattus norvegicus; Mus musculus, UniProt P35439+Q01097, Q01097:Q110G)
T8 construct: gene Grin1; full-length receptors from pcDNA3-based plasmids, Xenopus laevis oocytes, cDNA ratio 1:1; heterotetramer, usually two GluN1 and two GluN2
T8 sequence (Q01097 27-1482 Q110G, other chains not shown): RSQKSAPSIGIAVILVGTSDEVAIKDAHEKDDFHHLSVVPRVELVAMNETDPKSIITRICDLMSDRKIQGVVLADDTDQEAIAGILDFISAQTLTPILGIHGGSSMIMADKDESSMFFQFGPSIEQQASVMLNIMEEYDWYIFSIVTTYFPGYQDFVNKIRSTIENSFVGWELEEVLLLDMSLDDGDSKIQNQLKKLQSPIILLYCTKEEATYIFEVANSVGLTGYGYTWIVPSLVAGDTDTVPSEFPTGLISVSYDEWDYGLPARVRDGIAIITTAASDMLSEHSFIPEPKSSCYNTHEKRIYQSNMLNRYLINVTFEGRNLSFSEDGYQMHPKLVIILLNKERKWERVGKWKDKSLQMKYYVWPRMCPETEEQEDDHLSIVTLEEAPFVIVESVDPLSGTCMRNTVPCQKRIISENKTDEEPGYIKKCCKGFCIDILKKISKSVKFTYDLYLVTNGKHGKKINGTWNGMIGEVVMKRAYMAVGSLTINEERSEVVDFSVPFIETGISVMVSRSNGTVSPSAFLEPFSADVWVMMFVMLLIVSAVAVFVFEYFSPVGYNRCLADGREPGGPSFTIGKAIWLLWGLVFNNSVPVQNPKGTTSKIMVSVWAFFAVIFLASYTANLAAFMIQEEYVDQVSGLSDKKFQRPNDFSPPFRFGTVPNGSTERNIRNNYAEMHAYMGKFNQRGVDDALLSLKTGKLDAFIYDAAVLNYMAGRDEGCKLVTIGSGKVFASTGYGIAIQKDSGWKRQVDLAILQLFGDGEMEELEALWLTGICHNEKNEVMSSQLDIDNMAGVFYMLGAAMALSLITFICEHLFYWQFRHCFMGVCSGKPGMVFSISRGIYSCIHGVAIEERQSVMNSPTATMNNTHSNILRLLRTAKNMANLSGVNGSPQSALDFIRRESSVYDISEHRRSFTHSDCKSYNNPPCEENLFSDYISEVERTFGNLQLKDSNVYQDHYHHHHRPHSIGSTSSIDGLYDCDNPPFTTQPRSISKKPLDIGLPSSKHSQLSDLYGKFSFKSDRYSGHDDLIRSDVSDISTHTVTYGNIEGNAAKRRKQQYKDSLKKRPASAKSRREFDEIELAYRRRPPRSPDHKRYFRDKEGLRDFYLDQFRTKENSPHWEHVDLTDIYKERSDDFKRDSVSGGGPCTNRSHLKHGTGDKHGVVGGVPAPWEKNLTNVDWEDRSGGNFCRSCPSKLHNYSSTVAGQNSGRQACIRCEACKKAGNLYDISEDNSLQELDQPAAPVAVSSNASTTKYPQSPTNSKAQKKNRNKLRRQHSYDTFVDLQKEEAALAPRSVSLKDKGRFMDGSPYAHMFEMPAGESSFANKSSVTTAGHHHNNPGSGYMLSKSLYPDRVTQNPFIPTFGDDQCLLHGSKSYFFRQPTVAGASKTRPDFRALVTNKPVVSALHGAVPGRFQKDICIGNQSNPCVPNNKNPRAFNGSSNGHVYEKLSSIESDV
Text: as §1

[9] = molecular target: T9, GluN1/GluN2B receptor (rat GluN1-1a, mouse GluN2B) (Rattus norvegicus; Mus musculus, UniProt P35439+Q01097)
T9 construct: gene Grin1; full-length receptors from pcDNA3-based plasmids, Xenopus laevis oocytes, cDNA ratio 1:1; heterotetramer, usually two GluN1 and two GluN2
Text: as §1

[10] = molecular target: T10, GluN1/GluN2B receptor (rat GluN1-1a, mouse GluN2B) (Rattus norvegicus; Mus musculus, UniProt P35439+Q01097, Q01097:F176A)
T10 construct: gene Grin1; full-length receptors from pcDNA3-based plasmids, Xenopus laevis oocytes, cDNA ratio 1:1; heterotetramer, usually two GluN1 and two GluN2
Text: as §1

[11] = molecular target: T11, GluN1/GluN2B receptor (rat GluN1-1a, mouse GluN2B) (Rattus norvegicus; Mus musculus, UniProt P35439+Q01097, Q01097:P177C)
T11 construct: gene Grin1; full-length receptors from pcDNA3-based plasmids, Xenopus laevis oocytes, cDNA ratio 1:1; heterotetramer, usually two GluN1 and two GluN2
Text: as §1

T1 sequence (Q01097 27-1482, other chains not shown): as the sequence (Q01097 27-1482, other chains not shown) above

Q: For `Cc1nccn1Cc1cc(-c2ccc(F)c(C(F)F)c2)cnn1` [compound 1, 5-(3-(difluoromethyl)-4-fluorophenyl)-3-((2-methyl-1H-imidazol-1-yl)methyl)pyridazine], which IC50 [1] is on record?
A: 71 ± 7 nM

Q: What about the IC50 [2] of the same compound?
A: 9 ± 1 nM

Q: What about the IC50 [3] of the same compound?
A: 7300 ± 260 nM

Q: What about the IC50 [4] of the same compound?
A: 72 ± 7 nM

Q: And the IC50 [5]?
A: 404 ± 15 nM

Q: And the IC50 [6]?
A: 676 ± 10 nM

Q: And the IC50 [7]?
A: 9620 ± 700 nM

Q: And the IC50 [8]?
A: 502 ± 14 nM

Q: And the IC50 [9]?
A: 12 ± 0.2 nM

Q: And the IC50 [10]?
A: 11400 ± 1000 nM

Q: And the IC50 [11]?
A: 75 ± 12 nM
